Experimental data reported in patent US20020143062A1, “Method to incorporate N-(4-hydroxyphenyl) retinamide in liposomes” (Board of Regents, The University of Texas System, priority 2000, published 2002).
Where two headings read alike, the source gives them in different places.

Columns and labels:
[1] = Incorporation efficiency of 4-HPR into liposomes (OD345 after/before separation); assay type: physicochemical
Protocol: The mixture was frozen in acetone-dry ice bath, and then dried by lyophilzer. It was stored as a powder and resuspended with saline before use.
To determine the incorporation efficiency of 4-HPR into liposomes, liposomal 4-HPR powder was resuspended in saline and any free, unincorporated free 4-HPR was separated by centrifugation at 30,000× g for 1 hour. Liposomal 4-HPR was collected as a pellet and washed three times with saline. 4-HPR concentration was determined by absorbance at 345 nm. To remove the interference by liposomal turbidity, absorbance was measured after liposomal 4-HPR before and after separation was diluted with 1:1 mixture of dimethylsulfoxide and water. The incorporation efficiency was calculated by the following equation:
Incorporation efficiency=OD345 (after separation)/OD345 (before separation)×100%

[2] = tested on: MDA-MB-231; assay: Cellular proliferation assay, IC50 of retinoids with/without cyclosporin A; assay type: cell-based; details: for IC50: Homo sapiens
[3] = tested on: MDA-MB-453; assay: NO production, nitrite (Table 10); assay type: cell-based; details: Herceptin − or + as labelled
From the text: (§1) Overexpression/amplification of the Her-2/neu oncogene has been associated with poor prognosis for breast cancer.

[4] = tested on: BT-474; assay: NO production, nitrite (Table 10); assay type: cell-based; details: Herceptin − or + as labelled
From the text: as §1

[5] = tested on: SK-Br-3; assay: NO production, nitrite (Table 10); assay type: cell-based; details: Herceptin − or + as labelled
From the text: as §1

[6] = tested on: ER-positive MCF-7 cells; assay: Growth inhibition, cell count (Table 5); assay type: cell-based; details: 4HPR 1 μM alone; 5 days
From the text: (§2) Nitric oxide (NO), an important biological second messenger, is known to induce growth inhibition and apoptosis in cells. Nitric oxide (NO) is biosynthesized by isoenzymes called nitric oxide synthases. One such isoenzyme, inducible NOS (iNOS), is present only after cytokine induction, such as interferon-γ (IFN-γ). […] Here, the ability of liposomal 4-HPR and IFN-γ to induce NO production and growth inhibition in breast cancer positive (Table 5) and breast cancer negative (Table 6) cells is examined by nitrite assays and growth inhibition assays, as known to the skilled artisan.

[7] = 100 μM
Protocol: The shelf stability of liposomal 4-HPR with free 4-HPR was compared. Liposomal 4-HPR and free 4-HPR were diluted with 0.9% normal saline at 100 μM concentration, and incubated at room temperature under subdued light. At various time points, absorbance at 345 nm was measured as a parameter of 4-HPR stability. All data are expressed as % of absorbance at time zero, which is considered as 100%.

[8] = cited from earlier work
[9] = tested on: BT-474; assay: Cellular proliferation assay, IC50 of retinoids with/without cyclosporin A; assay type: cell-based; details: for IC50: Homo sapiens
[10] = tested on: MCF-7/WT; assay: as above; assay type: cell-based; details: for IC50: Homo sapiens
[11] = tested on: MDA-MB-453; assay: as above; assay type: cell-based; details: for IC50: Homo sapiens
[12] = tested on: MCF-7 cells; assay: Growth and viability, Celltiter 96 Aqueous (MTS) cell proliferation assay; assay type: cell-based; details: Homo sapiens, MCF7, 96 h, 4 days, % of untreated cells, read-out: Growth and viability (%) after treatment
Protocol: (§3) Breast cancer cell lines were plated in 96 well plates in DMEM/F12 medium supplemented with 5% fetal calf serum and incubated with different concentrations of liposomal 4-HPR and free 4-HPR, respectively. At the end of incubation, the growth of cells was determined by the Celltiter 96 Aqueous nonradioactive cell proliferation assay (Promega Corp., Madison, Wis.) according to the manufacturer's protocol. Growth and viability of cells were determined by MTS assay after treatment with 4-HPR for 3 days (BT-474) and 4 days (MCF7). Growth of treated cells was compared with that of untreated cells cultured under the same conditions, and was expressed as % of untreated cells.

[13] = tested on: BT-474 cells; assay: as above; assay type: cell-based; details: Homo sapiens, BT-474, 72 h, 3 days, % of untreated cells, read-out: Growth and viability (%) after treatment
Protocol: as §3

[14] = tested on: ER-positive MCF-7 cells; assay: NO production, nitrite assay (Tables 5 and 7); assay type: cell-based
From the text: as §2
(§4) It is also known to those skilled in the art that nitric oxide (NO) is a biologic mediator derived from the amino acid L-arginine. A family of enzymes, known as nitric oxide synthase (NOS), act upon L-arginine to oxidize one of the guanidino nitrogens to nitric oxide while citrulline is formed from the remainder of the L-arginine molecule.
(§5) Liposomal 4-HPR in combination with cyclosporin A, increased iNOS production of NO in breast cancer cells (Table 3-5). […] Furthermore, an increase in the production of NO in these cells was not indicated with other retinoids such as CD437 and ATRA.

[15] = tested on: ER-negative MDA-MB-231 cells; assay: NO production, nitrite (Table 8); assay type: cell-based; details: alone or with cyclosporin A 4 μg/ml as labelled, 3 days
From the text: as §5

[16] = tested on: ER-positive MCF-7 cells; assay: NO production, nitrite assay (Table 6); assay type: cell-based; details: 4HPR 1 μM alone, 5 days
From the text: as §2, §4

[17] = tested on: ER-positive MCF-7 cells; assay: Growth inhibition, cell count (Table 6); assay type: cell-based; details: 4HPR 1 μM alone, 5 days
From the text: Nitric oxide (NO), an important biological second messenger, is known to induce growth inhibition and apoptosis in cells. Nitric oxide (NO) is biosynthesized by isoenzymes called nitric oxide synthases. […]

[18] = tested on: MCF-7/ADR; assay: Cellular proliferation assay, IC50 of retinoids with/without cyclosporin A; assay type: cell-based; details: for IC50: Homo sapiens, NCI/ADR-RES
[19] = cotreatment with CsA 2 μg/ml, read-out: IC50 With CsA
[20] = without cyclosporin A, read-out: IC50 Without CsA

In the case of `CC1=C(/C=C/C(C)=C/C=C/C(C)=C/C(=O)Nc2ccc(O)cc2)C(C)(C)CCC1` [4-HPR, N-(4-hydroxyphenyl) retinamide], the incorporation efficiency ([1]; by optimizing ratio of 4-HPR to lipid mixture and ratio of DMPC to soybean oil) is reported as “up to 96%”, the “Incorporation efficiency (%)” value ([1]; composition column 1 of 7: 4-HPR:Lipid (w/w) 1:17, DMPC:soybean oil 1:0, water in tertiary butyl alcohol 0) is reported as 60.0% and the “Incorporation efficiency (%)” value ([1]; composition column 2 of 7: 4-HPR:Lipid 1:17, DMPC:soybean oil 1:0, water in tertiary butyl alcohol 1) is reported as 81.5%. For the same molecule, the “Incorporation efficiency (%)” value ([1]; composition column 3 of 7: water in tertiary butyl alcohol 1, lipid ratios not resolvable (header spans lost), DMPC:soybean oil 9:1) was 87.5%, the “Incorporation efficiency (%)” value ([1]; composition column 4 of 7: water in tertiary butyl alcohol 10, lipid ratios not resolvable (header spans lost)) was 92.8% and the “Incorporation efficiency (%)” value ([1]; composition column 5 of 7: water in tertiary butyl alcohol 1, lipid ratios not resolvable (header spans lost), DMPC:soybean oil 8:2) was 77.5%. The “Incorporation efficiency (%)” value ([1]; composition column 6 of 7: 4-HPR:Lipid 1:5 (likely), DMPC:soybean oil 9:1, water in tertiary butyl alcohol 10) was 88.3%, the “Incorporation efficiency (%)” value ([1]; composition column 7 of 7: 4-HPR:Lipid 1:15, DMPC:soybean oil 9:1, water in tertiary butyl alcohol 10) was 96.4% and the “-Fold ↑ (IC50 without CsA / with CsA)” value ([2]; CsA 2 μg/ml) was 6.37 -Fold. The IC50 [2, 19] was 1.23 µM, the IC50 [2, 20] was 7.84 µM and the “Nitrite (NO production)” value ([3]; 4HPR 1 μM) was 30.9 ± 1.5 μM Nitrite /1 × 10^6 cells. The “Nitrite (NO production)” value ([3]; 4HPR 2.5 μM) was 68.1 ± 3.4 μM Nitrite /1 × 10^6 cells, the “Nitrite (NO production)” value ([4]; 4HPR 1 μM) was 45.8 ± 0. μM Nitrite /1 × 10^6 cells and the “Nitrite (NO production)” value ([4]; 4HPR 2.5 μM) was 146.9 ± 2.8 μM Nitrite /1 × 10^6 cells. For the same molecule, the “Nitrite (NO production)” value ([5]; 4HPR 1 μM) was 34.9 ± 1.2 μM Nitrite /1 × 10^6 cells, the “Nitrite (NO production)” value ([5]; 4HPR 2.5 μM) was 75.2 ± 5.1 μM Nitrite /1 × 10^6 cells and the Cell count [6] was 20 × 10^4. For the same molecule, the “% remaining (absorbance at 345 nm as % of time zero)” value (shortened to “% remaining”) ([7]; 0 h) was 100%, the “% remaining” value ([7]; 24 h) was 85% and the “% remaining” value ([7]; 48 h) was 84%. For the same molecule, the “% remaining” value ([7]; 72 h) was 71%, the “% remaining” value ([7]; 96 h) was 61% and the “% remaining” value ([7]; 120 h) was 51%. The “% remaining” value ([7]; 168 h) was 32%, the “solubility in water” value [8] was “poorly soluble in water” and the “-Fold ↑ (IC50 without CsA / with CsA)” value ([9]; CsA 2 μg/ml) was 1.81 -Fold. For the same molecule, the IC50 [9, 19] was 1990 nM, the IC50 [9, 20] was 3610 nM and the “-Fold ↑ (IC50 without CsA / with CsA)” value ([10]; CsA 2 μg/ml) was 3.11 -Fold. The IC50 ([10]; MCF7, cotreatment with CsA 2 μg/ml, read-out: IC50 With CsA) was 1210 nM, the IC50 ([10]; MCF7, without cyclosporin A, read-out: IC50 Without CsA) was 3760 nM and the “-Fold ↑ (IC50 without CsA / with CsA)” value ([11]; CsA 2 μg/ml) was 3.26 -Fold. It also gave an IC50 [11, 19] of 1.9 µM, an IC50 [11, 20] of 6.2 µM and a viability at 0.1 µM ([12]; 0.1 μM 4-HPR) of 106 ± 7.8%. It also gave a viability at 0.9 µM ([12]; 0.9 μM 4-HPR) of 77.5 ± 5.8%, a viability at […] ([12]; 1.5 μM 4-HPR) of 43.8 ± 5.7% and a viability at 1.8 µM ([12]; 1.8 μM 4-HPR) of 33.6 ± 2%. It also gave a viability at 3.6 µM ([12]; 3.6 μM 4-HPR) of 17.8 ± 1.5%, a viability at 0.1 µM ([13]; 0.1 μM 4-HPR) of 100 ± 13.4% and a viability at 0.9 µM ([13]; 0.9 μM 4-HPR) of 109 ± 4.1%. For the same molecule, the viability at […] ([13]; 1.5 μM 4-HPR) was 99.4 ± 12.1%, the viability at 2.3 µM ([13]; 2.3 μM 4-HPR) was 76.9 ± 5.3% and the viability at 3.8 µM ([13]; 3.8 μM 4-HPR) was 52.6 ± 3.7%. The viability at 9 µM ([13]; 9.0 μM 4-HPR) was 17.1 ± 2.8%, the “Nitrite (NO production)” value ([14]; 4HPR 1 μM alone, 5 days, text: liposomal 4-HPR) was 72.6 ± 1.7 μM Nitrite /1 × 10^6 cells and the “Nitrite (NO production)” value ([14]; 4HPR 1.0 μM, alone or with cyclosporin A 4 μg/ml as labelled, 3 days) was 12.5 μM Nitrite /1 × 10^6 cells. For the same molecule, the “Nitrite (NO production)” value ([14]; 4HPR 2.0 μM, alone or with cyclosporin A 4 μg/ml as labelled, 3 days) was 33.8 μM Nitrite /1 × 10^6 cells, the “Nitrite (NO production)” value ([15]; 4HPR 2.5 μM) was 22.8 μM Nitrite /1 × 10^6 cells and the “Nitrite (NO production)” value ([15]; 4HPR 6.0 μM) was 26.7 μM Nitrite /1 × 10^6 cells. For the same molecule, the “Nitrite (NO production)” value [16] was 36.9 ± 5.8 μM Nitrite /1 × 10^6 cells, the Cell count [17] was 34 × 10^4 and the “-Fold ↑ (IC50 without CsA / with CsA)” value ([18]; CsA 4 μg/ml) was 2.47 -Fold. For the same molecule, the IC50 ([18]; cotreatment with CsA 4 μg/ml, read-out: IC50 With CsA) was 2.7 µM and the IC50 [18, 20] was 6.66 µM.
